Reference: patent US20210393610A1, “COMPOSITIONS AND METHODS FOR TREATING GOUT AND HYPERURICEMIA” (Jiangsu Hengrui Medicine Co., Ltd., priority 2018, published 2021)
Each block holds one compound with its values, some of them ahead of it.

How the values were obtained:
[1] = PK interaction of the compound of Formula I-1, febuxostat and colchicine (PK parameters in plasma); details: for AUC: plasma, oral, AUCss of the compound of Formula I-1, geometric mean
Description: (§1) The subjects were screened and examined on D-21 to D-15. 0.5 mg of colchicine once a day (qd) were orally administered to those who passed the screening on an empty stomach (D-14 to D16). If the subject was receiving an uric acid-lowering therapy (including allopurinol, febuxostat, benzbromarone, probenecid and the like) at the time of screening, the drug should be withdrawn for at least 2 weeks before D1. The subjects were admitted to the phase I clinical trial ward on D-2, and medical history inquiry, physical examination, vital signs examination, 12-lead electrocardiogram (ECG) examination, blood pregnancy examination (for female of childbearing age) were conducted again [if D-2 was more than 20 days away from the screening period, then blood examination, urine routine examination, CK\CK-MB, blood biochemistry (including serum creatinine and uric acid) examination were also required].
During the hospital stay, the subjects were fasted for more than 10 hours after dinner everyday (with free access to water). […] On D2, the subjects on an empty stomach were subjected to blood sampling, followed by having a standard meal which should be eaten within 20 minutes. Except for before the drug administration and 1 hour after the drug administration, water was consumed as needed at other times. On D3 to 8, no less than 2 L of water was consumed daily. On D9, the subjects can be discharged from the hospital after completing relevant examinations and operations, with a total hospital stay of 10 days. On D16 to 23, the subjects came back to the phase I clinical trial ward for follow-up. Throughout the study period, the subjects should avoid strenuous exercise and prolonged bed rest. The drug administration scheme is detailed in Table 1.
Colchicine tablets: D-14 to D16, 0.5 mg qd, orally administered on an empty stomach; Febuxostat tablets: D1 and D8, 80 mg qd, orally administered on an empty stomach; Tablets of the compound of Formula I-1: D3 to D8, 10 mg qd, orally administered on an empty stomach.
G. Main Observation Indicator • i. PK parameters of the compound of Formula I-1, febuxostat (Ruiyang®) and colchicine in plasma.

serum uric acid (sUA) = assay: PD interaction: serum uric acid (sUA) level after separate and combined administration; type: in vivo, patients suffering from gout
Description: as §1
During the hospital stay, the subjects were fasted for more than 10 hours after dinner everyday (with free access to water). […] On D2, the subjects on an empty stomach were subjected to blood sampling, followed by having a standard meal which should be eaten within 20 minutes. Except for before the drug administration and 1 hour after the drug administration, water was consumed as needed at other times. On D3 to 8, no less than 2 L of water was consumed daily. […]

sUA = details: after 6 months; febuxostat alone group; cited from earlier work
[2] = febuxostat alone group v.s. lesinurad 400 mg plus febuxostat group; cited from earlier work
[3] = combined administration with febuxostat 80 mg
[4] = combined administration with the compound of Formula I-1, no statistical difference (P>0.05)
[5] = impact of compound of Formula I-1 on colchicine
[6] = impact of febuxostat on colchicine
[7] = single administration (colchicine 0.5 mg qd)
[8] = impact of febuxostat on the compound of Formula I-1

Compound: COc1cc2c(c(OC)c1OC)-c1ccc(OC)c(=O)cc1[C@@H](NC(C)=O)CC2 [colchicine]
Css, max of colchicine, geometric mean ([1]; combined administration with compound of Formula I-1 10 mg qd): 2.2048 ng/mL
AUCss of colchicine, geometric mean [1, 3]: 18.3270 ng·h/mL
Css, max of colchicine, geometric mean [1, 3]: 2.2601 ng/mL
decrease of Css,max of colchicine ([1]; combined administration with febuxostat, no statistical difference (P>0.05)): 9.92%
decrease of AUCss of colchicine [1, 4]: 9.84%
decrease of Css,max of colchicine [1, 4]: 12.12%
AUCss of colchicine, Ratio (combined administration vs single administration) [1, 5]: 90.16%
Css, max of colchicine, Ratio (combined administration vs single administration) [1, 5]: 87.88%
AUCss of colchicine, Ratio (combined administration vs single administration) [1, 6]: 99.43%
Css, max of colchicine, Ratio (combined administration vs single administration) [1, 6]: 90.08%
AUCss of colchicine, geometric mean [1, 7]: 18.4329 ng·h/mL
Css, max of colchicine, geometric mean [1, 7]: 2.5089 ng/mL

effect of febuxostat on the steady-state exposure level of the compound of Formula I-1 ([1]; combined administration of febuxostat and the compound of Formula I-1): substantially no effect
Css, max of the compound of Formula I-1, geometric mean ([1]; combined administration with febuxostat 80 mg (colchicine background)): 1687.45 ng/mL
AUC ([1]; human, combined administration with febuxostat 80 mg (colchicine background)): 14700 ng·h/mL
AUC ([1]; human, single administration, 10 mg qd (colchicine 0.5 mg qd background)): 14400 ng·h/mL
AUCss of the compound of Formula I-1, Ratio (combined administration vs single administration) [1, 8]: 102.31%
Css, max of the compound of Formula I-1, Ratio (combined administration vs single administration) [1, 8]: 101.68%
Css, max of the compound of Formula I-1, geometric mean ([1]; single administration, 10 mg qd (colchicine 0.5 mg qd background)): 1659.60 ng/mL
Compound: O=C([O-])C1(Sc2ccnc3ccc(Br)cc23)CCC1.[Na+] [compound of Formula I-1]
average maximum reduction of serum sUA concentration (serum uric acid (sUA); compound of Formula I-1 10 mg qd administered sequentially, relative to baseline (D3-0 h)): 60.883%

AUC0-last of febuxostat, Ratio (combined administration vs single administration) ([1]; human, in vivo): 88.54%
Cmax of febuxostat, Ratio (combined administration vs single administration) ([1]; human, in vivo): 86.42%
Compound: Cc1nc(-c2ccc(OCC(C)C)c(C#N)c2)sc1C(=O)O [febuxostat]
average maximum reduction of serum uric acid (sUA) concentration (serum uric acid (sUA); single administration of febuxostat 80 mg, compared with single administration of colchicine at steady state): 22.144%
proportion of patients who achieved sUA<5.0 mg/dl (sUA): 46.8%
incidence of kidney-related adverse events [2]: 5.5%
serum creatinine increased ≥ 1.5 times the baseline [2]: 2.8%
serum creatinine increased ≥2 times the baseline [2]: 0%
